Measured values taken from patent publication US20020115642A1, “Beta-lactam antibiotics” (priority 2000, published 2002).
≈ marks a conversion by molar mass, not a printed value. Read-outs that look alike come from different tables or passages of the source.

Tests used:
E. faecium = test: Susceptibility testing (MIC, modified NCCLS method); type: cell-based, Enterococcus faecium; settings: Enterococcus faecium; E. faecium (6); read-out: GM* MIC (geometric mean)
Method: (§1) The NCCLS (National Committee for Clinical Laboratory Standards) method to determine MIC's of antimicrobial compounds was modified for high-throughput screening. All stocks of tested compounds were prepared in either water or in dimethylsulfoxide (DMSO), depending on the solubility. […] Briefly 20 2-fold serial dilutions of testing compounds from the highest concentration were made in a 384-well microtiter plate. Each well was inoculated with testing bacteria in broth to a final concentration of approximately 1-1.5×10^6 cells/ml. Bacterial growth was determined by the increase of optical density at 600 nm using a microplate reader (Tecan SpectraFluor Plus).

E. coli/TEM-1 [1] = test: as above; type: cell-based, Escherichia coli; settings: for MIC: Escherichia coli
Summary of the method: (§2)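 Stocks are made in water or DMSO depending on solubility. Twofold serial dilutions (20 points) from the top concentration are inoculated with bacteria in broth at about 1-1.5×10^6 cells/ml. MIC is taken from OD600-based growth, following an NCCLS method adapted for screening.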

E. coli N [2] = test: as above; type: cell-based, Escherichia coli; settings: Escherichia coli, E. coli, BLA neg.
Summary of the method: as §2

S. epidermidis = test: as above; type: cell-based, Staphylococcus epidermidis
Method: as §1

E. coli C(Tem3 1-27) = test: Inhibition of bacterial growth (IC50, OD600); type: cell-based; settings: for IC50: Escherichia coli
Method: (§3) Compounds of the invention were tested for their ability to inhibit the growth of β-lactam sensitive and resistant bacteria by contacting samples of such cells with various dilutions of the compositions, incubating the cells at 37° C. in the presence of these compositions and then measuring the number of viable cells present in each sample.
(§4) Two compounds of the invention were tested, Compound (9) and Compound (1l). Incubation of bacterial cells was performed for two time periods, 10 hours and 20 hours. Four E. coli strains were used for the test. These strains were all derived from the strain NovaBlue (NovaGen Inc., Madison, Wis.). E. coli N is a normal, β-lactam sensitive strain. E coli R(Tem1) is a β-lactam resistant strain with a β-lactamase gene on a plasmid. E. coli C(Tem4O-15) is a β-lactam resistant strain with a β-lactam inhibitor resistant β-lactamase gene, and E. coli C(Tem3 1-27) is β-lactam resistant strain with an alternative β-lactam inhibitor resistant β-lactamase gene.
(§5) The various E. coli strains were each treated with dilutions of the compounds of the invention. […] The number of viable cells at each time point was determined by measuring the OD600 of each cell sample.
(§6) After measuring the number of viable cells present, the IC50 for each sample was determined. […] In addition, both compounds were effective at inhibiting the growth of both antibiotic sensitive and resistant bacterial cells.

E coli R(Tem1) = test: Inhibition of bacterial growth (IC50, OD600); type: cell-based; settings: for IC50 ratio N/R: N versus R (Tem1); for IC50: Escherichia coli
Method: as §3, §4, §5, §6

E. coli C(Tem4O-15) = test: Inhibition of bacterial growth (IC50, OD600); type: cell-based; settings: for IC50: Escherichia coli
Method: as §3, §4, §5, §6

E. coli N [3] = test: Inhibition of bacterial growth (IC50, OD600); type: cell-based; settings: Escherichia coli
Method: as §3, §4, §5, §6

E. coli/TEM-1 [4] = test: Detection of triclosan released from Compound (9) in bacteria; type: cell-based, Escherichia coli; settings: E. coli/TEM-1, after five minutes, 100 μM Compound (9)
Method: E coli N and β-lactamase expressing E. coli/TEM-1 were treated with Compound (9) under the condition described in Example 15. Aliquots of culture were sampled at 0, 5 and 15 minutes. The amount of Compound (9) and triclosan were analyzed by HPLC.
Overnight cultures of both wild-type Escherichia coli N and β-lactamase producing strain Escherichia coli/TEM-1 were diluted 100 times with fresh LB medium and cells were grown for 4 hours at 37° C. (shaking at 230 rpm). Cells were then diluted with fresh LB medium containing 100 μM Compound (9) until the OD600 reached 0.2. Aliquots of the culture were sampled at different timed intervals and the cells were pelleted by centrifugation at 10,000×g for 2 minutes at 4° C. The supernatant was removed and combined with 500 μl acetonitrile. The pelleted bacterial cells were resuspended in 100 μl 133 Phosphate Buffer (GIBCO-BRL, pH8.0) and subjected to 3 cycles of freeze-thawing, followed by addition of 500 μl acetonitrile. Both pellet extracts and supernatant were centrifuged at 10,000×g for 2 minutes at 4° C. 550 μl of the resultant supernatant was transferred into a new Eppendorf tube and vacuum-dried. Dried pellets were resuspended in 50 μl H2O and 100 μl acetonitrile, 75 μl of which was analyzed by HPLC.

[5] = type: physicochemical; settings: 5 h, pH 7.2
Method: Assays were conducted at 37° C. in 100 mM potassium phosphate buffer pH 7.2 with 1 mM EDTA and 0.5 μg/ml TEM-1 β-lactamase. Compound (9) catalysis was determined via fixed time incubations followed by acid quenching. Product formation (triclosan) was determined by integrated peak area of A260 nm following HPLC separation. Hydrolysis product (triclosan) was separated from Compound (9) by use of an HP1100 series HPLC equipped with an Alltech Adsorbosphere HS(C18)5u 150 mm×4.6 mm column. The mobile phase was isocratic containing 55% acetonitrile and 0.1% TFA producing retention times of 20.4 minutes and 24.1 minutes for triclosan and Compound (9), respectively. Quantitation of triclosan was based on the A260 integrated peak area as compared to triclosan standards.
A typical TEM-1 β-lactamase assay is conducted at 37° C. in 1.4 ml of 100 mM potassium phosphate pH 7.2, 1 mM; ethylenediamine tetraacetic acid (EDTA) and 25 nM TEM-1 β-lactamase. A test compound is assayed at several concentrations, for example at 5 and 20 μM. At timed intervals oft=0, 15, 30, 60 and 120 minutes, 200 μl of the assay mixture is withdrawn and added to 8 μl of 10% trifluoracetic acid (TFA) in an high pressure liquid chromatography.(HPLC) microvial. Substrates and products are separated and quantitated via HPLC (described below). […]

M. catarrhalis = test: Susceptibility testing (MIC, modified NCCLS method); type: cell-based, Moraxella catarrhalis; settings: M. catarrhalis (4)
Method: as §1

O=C(Cc1cccs1)N[C@@H]1C(=O)N2C(C(=O)O)=C(COc3cc(Cl)ccc3Oc3ccc(Cl)cc3Cl)CS[C@H]12 [Compound 9, 3-(2-(2,4-Dichlorophenoxy)-5-chlorophenoxy)methyl-7-(2-thienylacetamido)-3-cephem-4-carboxylic acid]
MIC (E. faecium): > 7 µg/mL | MIC (E. coli/TEM-1 [1]): 2 ng/mL (≈ 3.2 nM) | MIC (E. coli/TEM-1 [1]; read-out: MIC, Comp. (9) plus 8 μg/mL SBT): 16 ng/mL | fold more potent against E. coli/TEM-1 compared with E. coli N (E. coli/TEM-1 [1]; MIC ratio, Table 4): 128 fold | MIC (E. coli N [2]; read-out: MIC, Comp. (9) plus 4 μg/mL CLA, plus 4 μg/mL lithium clavulanate): 0.25 µg/mL | MIC (E. coli N [2]; drug alone, read-out: MIC): 0.25 µg/mL (≈ 399 nM) | MIC (E. coli N [2]; plus 8 μg/mL sulbactam, read-out: MIC, Comp. (9) plus 8 μg/mL SBT): 0.13 µg/mL | MIC range (S. epidermidis; S. epidermidis (5)): 0.015 to 500 ng/mL | GM* MIC (geometric mean) (S. epidermidis; S. epidermidis (5), listed as Comp. (9)): <4 ng/mL | fold more active than vancomycin (S. epidermidis; S. epidermidis, geometric mean MIC): 435 fold | MIC (S. epidermidis; Staphylococcus epidermidis, S. epidermidis (5), read-out: GM* MIC (geometric mean)): 4 ng/mL (≈ 6.39 nM) | IC50 ratio (C/R or N/C) (E. coli C(Tem3 1-27); 10 hours, line of C (Tem31-27)): C/R = 90x | IC50 ratio (given C/R or N/R) (E. coli C(Tem3 1-27); 20 hours, line of C (Tem31-27)): C/R = 2x | IC50 (E. coli C(Tem3 1-27); 10 h, read-out: IC50 10 hours): 2.09 nM | IC50 (E. coli C(Tem3 1-27); 20 h, read-out: IC50 20 hours): 21 nM | IC50 ratio N/R (E coli R(Tem1); 10 hours): N/R = 1969x | IC50 ratio N/R (E coli R(Tem1); 20 hours): N/R = 10x | IC50 (E coli R(Tem1); 10 h, read-out: IC50 10 hours, Cell R (Tem1), 10 hours): 0.096 nM | IC50 (E coli R(Tem1); 20 h, read-out: IC50 20 hours, Cell R (Tem1), 20 hours): 4.13 nM | IC50 ratio (C/R or N/C) (E. coli C(Tem4O-15); 10 hours, line of C (Tem40-15)): C/R = 117x | IC50 ratio (given C/R or N/R) (E. coli C(Tem4O-15); 20 hours, line of C (Tem40-15)): C/R = 2.3x | IC50 (E. coli C(Tem4O-15); 10 h, read-out: IC50 10 hours): 1.62 nM | IC50 (E. coli C(Tem4O-15); 20 h, read-out: IC50 20 hours): 18.3 nM | IC50 (E. coli N [3]; 10 h, read-out: IC50 10 hours, Cell N, 10 hours, 37° C.): 189 nM | IC50 (E. coli N [3]; 20 h, read-out: IC50 20 hours, Cell N, 20 hours): 42.4 nM | Compound (9) hydrolyzed producing an equimolar amount of triclosan (E. coli/TEM-1 [4]): approximately 80% | stability in TEM-1 blank experiment [5]: stable up to 5 hours | MIC range (M. catarrhalis): 0.015 to 31 ng/mL | MIC (M. catarrhalis; Moraxella catarrhalis, read-out: GM* MIC (geometric mean)): 0.18 ng/mL (≈ 0.288 nM)
